According to publication PMC13450841 (PLOS Pathogens, 2026):
“Also recorded” adds a separate entry of the source. Where two headings read alike, the source gives them in different places. Where a SMILES comes first, the peptide text is derived from it.

Experiments:
ExoU [1] = biological target: T1, ExoU (Pseudomonas aeruginosa, UniProt O34208); assay: ExoU in vitro phospholipase assay (real-time, dose-response); type: biochemical; settings: for Inhibition of ExoU phospholipase activity (in words): real-time phospholipase assay, Fig 2A, 2B, 2E
[2] = tested on: primary human corneal epithelial cells
P. aeruginosa PA103 [3] = settings: read-out: IC50 of bacterial growth
ExoU [4] = biological target: T1, ExoU; assay: nanoDSF thermal stability of ExoU; type: binding; settings: 10 µM compound; for ΔTm at 10 µM: read-out: Decrease of ExoU Tm
Method: Thermal stability of recombinant His₆-ExoU was assessed using a Prometheus NT.48 instrument (NanoTemper Technologies, Cambridge, UK) without extrinsic dyes, as these were not compatible with the use of PIP2. ExoU was diluted to 5 µM in 20 mM TrisHCl-HCl (pH 8.2), 100 mM NaCl, and 10% (v/v) glycerol. To evaluate ligand effects, four samples were prepared: ExoU alone, ExoU with 5 µM PIP2, ExoU with 10 µM inhibitor, and ExoU with both 5 µM PIP2 and 10 µM indicated inhibitor, each maintaining 1% (v/v) DMSO. Ten microliters of each mixture were loaded into highsensitivity-sensitivity nanoDSF glass capillaries and subjected to a thermal ramp from 25 °C to 95 °C at 1 °C/min. Intrinsic tryptophan fluorescence emission at 330 nm and 350 nm was recorded continuously, and the ratio F₃₅₀/F₃₃₀ was plotted against temperature. Melting temperatures (Tₘ) were determined from the inflection point of the first derivative of the fluorescence ratio using the manufacturer’s analysis software. All conditions were measured in triplicate. Changes in melting temperature (Δ Tₘ) compared to DMSO, or DMSO PIP2 controls were plotted using GraphPad.
Supplementary file ppat.1014474.s008.tif: S7 Fig Nano differential scanning fluorimetry (nanoDSF) analysis of ExoU thermal stability in the presence of compounds. Raw melt curves of recombinant ExoU are shown in the absence (left) and presence (right) of PIP2 (5 µM) from three independent (A-C) experiments. Compounds were tested at 10 µM. Intrinsic tryptophan fluorescence emission was continuously monitored at 330 nm and 350 nm as the temperature increased, and the fluorescence ratio (F₃₅₀/F₃₃₀) was plotted against temperature. Melting temperatures (Tₘ) were calculated from the average inflection point of the first derivative of the fluorescence ratio using the manufacturer’s analysis software. (TIF)

in vitro = settings: human, primary human corneal (limbal) epithelial cells
[5] = tested on: PA103-infected HCE-T cells; assay: LDH release assay in PA103-infected scratched HCE-T cells; type: cell-based, human; settings: 2.5 µM compound, PA103 MOI 10, 4 hours, S6 Fig
Excerpt: Percentage lysis was normalized to the maximal LDH release from the kit positive control (CyQUANT; Thermo Fisher). (TIF)

EGFP-tagged ExoU (S142A) = assay: EGFP-ExoU (S142A) abundance and lysosome colocalisation in transfected HEK293T cells
P. aeruginosa PA103 [6] = type: in vivo, Galleria mellonella
ExoU [7] = biological target: T1, ExoU; assay: BS3 cross-linking and SDS-PAGE of ExoU oligomerisation; settings: 10 µM inhibitor
Method: Four reaction mixtures (50 µL each) were prepared at room temperature: ExoU alone; ExoU with 5 µM PIP2; ExoU with 10 µM inhibitor; and ExoU with both 5 µM PIP2 and 10 µM inhibitor for 30 minutes at 25 °C. […] Reactions were quenched by addition of Tris HCl pH 7.4 to 50 mM and a further 15 min incubation at room temperature. […] Membranes were blocked in TBST containing 5% (w/v) non-fat milk for 1 h, then incubated overnight at 4 °C with mouse anti-His monoclonal antibody (Bio Rad; 1:2,000). After washing in TBST, membranes were incubated with HRP-conjugated goat anti-mouse IgG for 1 h at room temperature. Signal was detected by chemiluminescence with X ray film exposure, and band patterns were analysed to determine the distribution of monomeric and oligomeric ExoU species under each condition.

[8] = tested on: HCE-T cells infected with exoU⁺ clinical P. aeruginosa keratitis isolates; assay: CellDiscoverer 7 high-content screen, exoU+ isolates; type: cell-based, human; settings: 4.5 h post-infection; Bis 10 µM, Zp 2.5 µM, Pol 1 µM; DMSO ~43%
PLA2G4C = biological target: T2, PLA2G4C (Homo sapiens, UniProt Q9UP65); assay: Human phospholipase assay, thio-BGPC substrate; type: biochemical; settings: 10 µM, S4 Fig
T2 construct: 6xHis (N); made in house; host or cells: E. coli C43(DE3)
T2 sequence (Q9UP65 1-541): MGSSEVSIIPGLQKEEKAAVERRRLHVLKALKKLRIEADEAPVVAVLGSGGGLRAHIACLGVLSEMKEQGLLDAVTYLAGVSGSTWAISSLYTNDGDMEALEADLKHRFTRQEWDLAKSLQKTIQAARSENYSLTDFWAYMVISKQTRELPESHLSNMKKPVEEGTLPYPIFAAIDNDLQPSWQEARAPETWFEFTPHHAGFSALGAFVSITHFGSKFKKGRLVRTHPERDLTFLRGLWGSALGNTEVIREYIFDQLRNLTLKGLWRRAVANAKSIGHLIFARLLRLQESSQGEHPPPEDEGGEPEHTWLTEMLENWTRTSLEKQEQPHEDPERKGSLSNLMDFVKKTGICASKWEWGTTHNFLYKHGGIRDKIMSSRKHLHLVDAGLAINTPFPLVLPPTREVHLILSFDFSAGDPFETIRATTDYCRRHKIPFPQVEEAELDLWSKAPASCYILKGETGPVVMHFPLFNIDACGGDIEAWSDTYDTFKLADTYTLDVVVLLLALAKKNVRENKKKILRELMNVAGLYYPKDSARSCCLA
Method: Recombinant human PLA2G7 and PLA2G4C activities were measured in 96well, -well, UVtransparent microplates (Corning) in a final volume of 50 µL per well. Reactions were carried out in 20 mM […] TrisHCl-HCl (pH 8.2), 100 mM NaCl, and 0.01% Tween 20, with a 1% (v/v) final DMSO concentration. For PLA2G7, substrate cleavage was monitored using 0.6 mM 2-thio-PAF (Cambridge Bioscience Ltd), and for PLA2G4C, 0.6 mM arachidonoyl thio-bis-glycerophosphocholine (thioBGC-BGC; Cambridge Bioscience Ltd) was employed. In both assays, 1 mM DTNB (5,5′-dithiobis-(2nitrobenzoic acid), -nitrobenzoic acid), SigmaAldrich-Aldrich) served as the chromogenic reporter. Enzyme (500 nM final) was preequilibrated with buffer at 25 °C for 5 min before initiating-equilibrated with buffer at 25 °C for 5 min before initiating the reaction by substrate addition. Absorbance at 414 nm was recorded every minute for 1 h on a Hidex plate reader.
(B) ExoU activity was assessed using arachidonoyl thio-phosphatidylcholine (thio-PC) in the presence of 10 µM of the indicated compound. […] (TIF)

P. aeruginosa PA103 [9] = tested on: P. aeruginosa PA103; set-up: species or system porcine; settings: 48 hours
human PLA2G7 = biological target: T3, human PLA2G7 (Homo sapiens, UniProt Q13093); assay: Human phospholipase assay, 2-thio-PAF substrate; type: biochemical; settings: 10 µM, S4 Fig
T3 construct: 6xHis (N); made in house; host or cells: E. coli C43(DE3)
T3 sequence (Q13093 22-441): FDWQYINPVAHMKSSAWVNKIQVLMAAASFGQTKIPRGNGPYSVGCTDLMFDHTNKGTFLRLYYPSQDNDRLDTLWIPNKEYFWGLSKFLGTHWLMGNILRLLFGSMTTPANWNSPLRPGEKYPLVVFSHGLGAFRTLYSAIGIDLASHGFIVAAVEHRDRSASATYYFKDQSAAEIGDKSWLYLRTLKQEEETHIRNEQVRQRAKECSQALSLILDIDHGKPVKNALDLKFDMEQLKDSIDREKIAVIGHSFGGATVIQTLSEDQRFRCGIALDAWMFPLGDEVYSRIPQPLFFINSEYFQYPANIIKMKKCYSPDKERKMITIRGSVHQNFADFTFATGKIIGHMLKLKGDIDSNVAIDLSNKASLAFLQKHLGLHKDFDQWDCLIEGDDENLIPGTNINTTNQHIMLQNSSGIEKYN

[10] = tested on: T3SS gene expression in P. aeruginosa PA103 and PAO1; assay: Quantitative RT-PCR of T3SS gene expression; type: cell-based, Pseudomonas aeruginosa; settings: Bis 10 µM, Zp 2.5 µM, Pol 1 µM in LB
[11] = Fig 1B dose-response, PIP2 and ubiquitin present, read-out: IC50 for ExoU inhibition in vitro
[12] = Fig 3C, three-parameter fit, read-out: IC50 for ExoU inhibition, individual inhibitors or equimolar combinations
[13] = Fig 2C dose-response phospholipase assays, read-out: IC50 of bismuth-based ExoU inhibitors and subcitrate alone

## subcitrate
ExoU [1]; Fig 2C dose-response phospholipase assays
  IC50 of bismuth-based ExoU inhibitors and subcitrate alone: No inhibition

## CC[C@H](C)CCCCC(=O)N[C@@H](CCN)C(=O)N[C@H](C(=O)N[C@@H](CCN)C(=O)N[C@H]1CCNC(=O)[C@H]([C@@H](C)O)NC(=O)[C@H](CCN)NC(=O)[C@H](CCN)NC(=O)[C@H](CC(C)C)NC(=O)[C@@H](Cc2ccccc2)NC(=O)[C@H](CCN)NC1=O)[C@@H](C)O [Pol, polymyxin B] (HELM PEPTIDE1{[CC[C@H](C)CCCCC(=O)[*:2]].[Dab].T.[Dab].[Dab].[Dab].[dF].L.[Dab].[Dab].T}$PEPTIDE1,PEPTIDE1,5:R3-11:R2$$$V2.0)
ExoU [1]; [11]
  IC50: 13.1 ± 1.7 µM
ExoU [1]; [12]
  IC50: 11.6 ± 0.9 µM
ExoU [1]; IC50 for ExoU inhibition, polymyxin B and poltide analogues, Fig 2E
  IC50: 13 µM
[2]
  LD50 (LDH release): 42.5 ± 10.6 µM
P. aeruginosa PA103 [3]; in DMEM/F-12 supplemented with 10% (v/v) FBS
  IC50: 2.1 µM
P. aeruginosa PA103 [3]; in LB
  IC50: 0.75 µM
ExoU [4]; absence of PIP2
  ΔTm at 10 µM: -3.8 °C
ExoU [4]; with 5 µM PIP2
  ΔTm at 10 µM: -6.2 °C
In vitro
  CC50 at 48 h: 43 µM

## On1ccccc1=S.On1ccccc1=S.[Cu] [copper pyrithione]
ExoU [1]
  Inhibition of ExoU phospholipase activity (in words): Neither copper pyrithione, nor pyrithione inhibited ExoU

## CCN(CC)CCN(Cc1ccc(-c2ccc(C(F)(F)F)cc2)cc1)C(=O)Cn1c(SCc2ccc(F)cc2)nc(=O)c2c1CCC2 [darapladib]
ExoU [1]; 10 µM compound, S4 Fig
  ExoU activity with arachidonoyl thio-PC substrate: did not inhibit ExoU activity

## O=S(=O)([O-])[O-].[Zn+2] [zinc sulphate]
ExoU [1]
  Inhibition of ExoU phospholipase activity (in words): inhibited ExoU phospholipase activity
[5]
  Mean lysis (LDH release): 89%

## [O-][n+]1ccccc1S [pyrithione]
ExoU [1]
  Inhibition of ExoU phospholipase activity (in words): Neither copper pyrithione, nor pyrithione inhibited ExoU

## lauric acid–Asp–Thr–Dab [Poltide 2]
ExoU [1]; Fig 2E
  IC50 for ExoU inhibition, polymyxin B and poltide analogues: no effect on ExoU activity

## [H]/N=C(\N/C(=N/[H])NCCCCCCNC(=N)NC(=N)Nc1ccc(Cl)cc1)Nc1ccc(Cl)cc1 [chlorhexidine]
ExoU [1]; [11]
  IC50: 18.5 ± 3.3 µM

## CC(=O)Oc1ccc(C(=C2CCCCC2)c2ccc(OC(C)=O)cc2)cc1 [cyclofenil]
ExoU [1]; [11]
  IC50: 20.2 ± 2.8 µM

## [Cl][Bi]([Cl])[Cl] [Bismuth chloride, bismuth chloride]
ExoU [1]; [13]
  IC50: 9.2 µM

## O=C([O-])CC(O)(CC(=O)[O-])C(=O)[O-].O=C([O-])CC(O)(CC(=O)[O-])C(=O)[O-].[Bi+3].[K+].[K+].[K+] [Bis, bismuth subcitrate]
ExoU [1]; [11]
  IC50: 12.8 ± 1 µM
ExoU [1]; [13]
  IC50: 9.9 µM
ExoU [1]; [12]
  IC50: 13.3 ± 2.9 µM
EGFP-tagged ExoU (S142A); 5 µM, 16 h
  Level of EGFP-tagged ExoU (S142A) by Western blot: substantially reduced
EGFP-tagged ExoU (S142A); 16 h
  EGFP-ExoU (S142A) fluorescence and localisation (confocal): marked reduction; also recorded: redistributed into punctate structures that co-localised with RFP-LAMP1
EGFP-tagged ExoU (S142A); 16 h compound treatment, DMSO r = 0.05
  Pearson's correlation coefficient r, ExoU-lysosome (RFP-LAMP1) colocalisation: 0.49
P. aeruginosa PA103 [6]; PA103 1 × 10⁵ CFU, Bis 0.1 mg/g, Zp 0.01 mg/g, Pol 0.004 mg/g, 40 h
  Clinical score: mean±SD (health score 0-9): 4.17 ± 3.89
P. aeruginosa PA103 [6]; PA103-infected larvae, PA103 alone 16
  Median survival: 16 h
P. aeruginosa PA103 [6]; in a subset of larvae
  Delay of disease progression: approximately 8 h
ExoU [7]; with PIP2
  Migration of BS3 cross-linked ExoU on SDS-PAGE: single discrete high‐molecular‐weight band
ExoU [7]; without PIP2
  Migration of BS3 cross-linked ExoU on SDS-PAGE: did not alter this profile
[8]
  Mean live-cell area relative to non-infected controls: 55.8%
ExoU [4]; absence of PIP2
  Decrease of ExoU Tm: no measurable effect
ExoU [4]; with 5 µM PIP2
  Decrease of ExoU Tm: ~ 2 °C
PLA2G4C
  Inhibition of PLA2G4C: no inhibition
P. aeruginosa PA103 [9]
  Histology (H&E) of infected corneas: partial epithelial preservation and less stromal damage
P. aeruginosa PA103 [9]; Bis 5 µM, Zp 2.5 µM, Pol 1 µM topical
  Corneal opacity: performing slightly better than Zp
Human PLA2G7
  Inhibition of PLA2G7 enzymatic activity: neither Bis, Pol, nor Zp inhibited enzymatic activity
[10]
  Expression of exsA, pcrV, exoU in PA103, or exsA, pcrV, exoS in PAO1: no significant changes

## COc1cc2c(cc1OC)[C@@H](Cc1cc(OC)c(OC)c(OC)c1)[N+](C)(CCCOC(=O)CC/C=C/CCC(=O)OCCC[N+]1(C)CCc3cc(OC)c(OC)cc3[C@H]1Cc1cc(OC)c(OC)c(OC)c1)CC2 (stereo partly shown) [mivacurium chloride]
ExoU [1]; [11]
  IC50: 6 ± 1.8 µM

## CC[C@H](C)CCCCC(=O)O [(S)-6-methyloctanoic acid]
ExoU [1]
  Inhibition of ExoU phospholipase activity (in words): failed to inhibit ExoU
